Data published in patent US20200306255A1, “COMPOSITIONS AND METHODS FOR TREATING NIEMANN PICK C DISEASE” (AI Therapeutics, Inc., priority 2016, published 2020).

Tests used:
NPC1 fibroblasts = experiment: HexB release lysosome exocytosis assay; assay type: cell-based, human; details: 24 hours treatment; FIG. 3
Procedure: NPC1 mutant patient skin fibroblasts have been used as a robust cellular model of NPC1 disease (Chen 2010, Xu M et al 2012, Xu M et al 2014) and these cells display a number of NPC-related defects including intracellular accumulation of cholesterol other lipids.
FIG. 3: the rate of lysosome exocytosis can be monitored by the measurement of the release of lysosomal proteins such as Hexosaminidase Subunit Beta(HexB). In FIG. 3, NPC1 fibroblasts were treated with apilimod for 24 hours, the HexB release lysosome exocytosis assay was performed as previously described (Xu et al 2012). The rate of HexB release from NPC1 was increased by apilimod treatment providing evidence for an increased rate of lysosome exocytosis likely leading to cholesterol lowering in NPC1 cells.
Shown in the figure are fluorescence microscopy images of the NPC1 cells treated with 0, 78, 156, and 625 nM apilimod. […] In FIG. 3, apilimod treatment of NPC1 fibroblasts can enhance the rate of lysosome exocytosis as one of the mechanisms for cells to clear lysosome storage of cholesterol and lipid accumulations in NPC.

[1] = plasma protein binding, rat; assay type: in vitro ADME
Procedure: (§1) In embodiments, the apilimod compound for use in the compositions and methods of the invention is the free base or dimesylate salt form, MW 610.7 (dimesylate salt); tPSA 83.1; pKa 5.39 (±0.03), 4.54 (±0.27); HBD 1. […] In embodiments, the apilimod compound for use in the compositions and methods of the invention is an active metabolite of apilimod. Six primary metabolites were identified in rat and human microsomal and hepatocyte stability studies. […] Tmax generally occurred within 1 or 2 hours after the oral dose, consistent with the […] of this compound from the circulation. […] The primary metabolites are short-lived in circulation. Both apilimod free base and the dimesylate salt are highly bound (>99%) to rat, dog and human plasma proteins.

[2] = plasma protein binding, human; assay type: in vitro ADME; details: read-out: bound to plasma proteins
Procedure: as §1

CYP3A4 = CYP3A4 (Homo sapiens, UniProt P08684); experiment: reaction phenotyping studies, CYP3A4; assay type: in vitro ADME
Chain of CYP3A4 (P08684 whole entry): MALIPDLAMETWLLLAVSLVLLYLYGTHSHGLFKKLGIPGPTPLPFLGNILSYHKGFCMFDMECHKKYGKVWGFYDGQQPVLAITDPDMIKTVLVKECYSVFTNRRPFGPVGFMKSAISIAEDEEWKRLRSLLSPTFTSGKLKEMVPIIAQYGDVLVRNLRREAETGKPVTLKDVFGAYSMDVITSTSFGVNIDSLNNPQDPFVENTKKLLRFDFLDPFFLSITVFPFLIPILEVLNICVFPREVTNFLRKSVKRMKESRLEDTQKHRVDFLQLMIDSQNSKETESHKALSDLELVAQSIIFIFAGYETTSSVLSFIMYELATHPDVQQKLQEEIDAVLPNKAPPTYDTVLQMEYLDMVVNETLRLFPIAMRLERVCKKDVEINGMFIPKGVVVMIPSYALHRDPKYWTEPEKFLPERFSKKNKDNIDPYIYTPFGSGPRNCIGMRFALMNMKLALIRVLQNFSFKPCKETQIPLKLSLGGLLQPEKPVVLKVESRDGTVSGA
Procedure: as §1

[3] = plasma protein binding, dog; assay type: in vitro ADME; details: read-out: bound to plasma proteins
Procedure: as §1

osteoclast formation = details: in vitro assay; from WO 2005/000404; read-out: inhibitory activity against osteoclast formation, IC50; cited from earlier work

For Cc1cccc(/C=N/Nc2cc(N3CCOCC3)nc(OCCc3ccccn3)n2)c1 [apilimod], the “rate of HexB release (lysosome exocytosis)” value (NPC1 fibroblasts) was “increased”, the fraction unbound [1] was < 0.01 and the fraction unbound [2] was < 0.01. For the same molecule, the “contribution of CYP3A4 to metabolism” value (CYP3A4) was “contribute to metabolism”, the fraction unbound [3] was < 0.01 and the IC50 (osteoclast formation) was 15 nM.
